Experimental findings from ChEMBL document CHEMBL3886859, “Pyridine derivatives” (2016) are described below.

One assay concerns the target Cathepsin S (Homo sapiens, UniProt P25774). Kind of assay: (§1) Enzyme Inhibition Assay: Enzyme activity is measured by observing the increase in fluorescence intensity caused by cleavage of a peptide substrate containing a fluorophore whose emission is quenched in the intact peptide.Assay buffer: 100 mM potassium phosphate pH 6.5, EDTA-Na 5 mM, Triton X-100 0.001%, DTT 5 mM.Enzymes (all at 1 nM): human and mouse Cathepsin S, Cat K, Cat B, Cat L.Substrate (20 μM): Z-Val-Val-Arg-AMC, except for Cat K which uses Z-Leu-Arg-AMC (both from Bachem).Z=Benzyloxycarbonyl.AMC=7-Amino-4-Methyl-Coumarin.DTT=dithiothreitol.Final volume: 100 μL.Excitation 360 nm, Emission 465 nm.Enzyme is added to the substance dilutions in 96-well microtitre plates and the reaction is started with substrate. Fluorescence emission is measured over 20 minutes, during which time a linear increase is observed in the absence of inhibitor.

A further assay has as its target Procathepsin L (Homo sapiens, UniProt P07711). Described as §1.

pIC50: −log10 of the molar value.

Sequence of Procathepsin L (P07711 whole entry): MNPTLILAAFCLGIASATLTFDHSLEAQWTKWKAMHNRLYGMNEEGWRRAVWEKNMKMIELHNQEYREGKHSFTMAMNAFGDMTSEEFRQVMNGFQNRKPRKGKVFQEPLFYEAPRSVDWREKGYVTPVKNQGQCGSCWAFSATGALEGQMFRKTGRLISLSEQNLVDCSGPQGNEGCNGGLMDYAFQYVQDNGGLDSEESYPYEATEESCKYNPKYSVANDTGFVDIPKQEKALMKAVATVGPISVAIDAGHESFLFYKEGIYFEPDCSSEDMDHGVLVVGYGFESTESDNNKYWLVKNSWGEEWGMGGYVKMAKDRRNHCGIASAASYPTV
Sequence of Cathepsin S (P25774 whole entry): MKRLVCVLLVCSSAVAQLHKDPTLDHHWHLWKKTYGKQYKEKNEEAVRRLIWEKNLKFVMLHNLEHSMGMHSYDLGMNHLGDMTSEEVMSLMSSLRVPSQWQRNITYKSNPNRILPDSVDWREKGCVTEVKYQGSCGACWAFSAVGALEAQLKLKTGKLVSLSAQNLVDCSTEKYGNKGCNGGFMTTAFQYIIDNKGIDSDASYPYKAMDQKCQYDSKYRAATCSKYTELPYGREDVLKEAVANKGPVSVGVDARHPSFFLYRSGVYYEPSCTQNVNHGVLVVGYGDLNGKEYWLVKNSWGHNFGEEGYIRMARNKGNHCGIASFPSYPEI

One may read the pIC50 as the IC50 on a negative log10 scale, so that one unit is a factor of ten. The low end stands for a large IC50, the high end for a small IC50. Turning to `N#CC1(NC(=O)[C@@H]2C[C@@H](S(=O)(=O)c3ccc(Br)cc3Cl)CN2C(=O)C2(c3ncc(Cl)cc3F)CC2)CC1`, the pIC50 against Cathepsin S was 9.32; on Procathepsin L it was 7.14.
For `N#CC1(NC(=O)[C@@H]2C[C@@H](S(=O)(=O)c3cc(C(F)(F)F)ccc3Cl)CN2C(=O)C2(c3ncc(Cl)cc3F)CC2)CC1` the same measures were 9.27 and 7.25.
For `N#CC1(NC(=O)[C@@H]2C[C@@H](Sc3ncc(C(F)(F)F)cc3Cl)CN2C(=O)C2(c3ncc(Cl)cc3F)CC2)CC1` the same measures were 5.99 and under 4.60.
